# Reference: patent US10618869B2, “Oligo-benzamide compounds and their use” (The Board of Regents of the University of Texas System, priority 2010, dated 2020)
# “Also recorded” adds a separate entry of the source.
# Tests used:
# [1] = Stability of D2 in culture and in LNCaP cell lysate (HPLC); format: in vitro ADME
# Text: FIGS. 4A-F. (FIG. 4A) Chemical structure of the bis-benzamide (D2). (FIG. 4B) the lowest-energy conformation of D2. (FIG. 4C) the stereoview of the superimposition of D2 on a helical turn.
# AR-PELP1 interaction = assay: DHT-induced AR-PELP1 co-immunoprecipitation in PCa cells; format: cell-based
# Text: FIG. 6. Effect of D1 and D2 on DHT induced AR-PELP1 co-immunoprecipitation in LNCaP cells.
# FIGS. 7A-C. Effect of D1 and D2 on DHT induced AR-PELP1 co-immunoprecipitation in LNCaP cells. (FIG. 7A) Model depicts the proposed role for D2 in disrupting the interaction between AR and NR Box proteins such as Hsp27 and PELP1. (FIG. 7B) Effect of increasing concentration of D2 on complex formation between AR and NR Box proteins such as Hsp27 and PELP1, as shown for immunoprecipitation with AR (top panel) and with PELP1 (bottom panel). Input lysates are shown at the bottom. (FIG. 7C) Rescue of D2-induced suppression of AR-PELP1 complex formation: Following transient transfection with increasing concentrations of AR (left panel) or increasing concentration of PELP1 (right panel), LnCAP cells were treated with 10 nM DHT for 24 hours following preincubation with D2 or control D1. Extracts were immunoprecipitated with AR and immunoblotted with PELP1, AR or importin.
# FIG. 6 provides confirmation that D2 was directed against the LXXLL (SEQ ID NO: 1) motif and was capable of blocking AR and PELP1 interaction in vivo was obtained from coimmunoprecipitation experiments in LnCaP PCa cells.
# D2 was also able to block the DHT- and E2-induced interaction of AR with PELP1 in LAPC4, C4-2, VCAP and CWR22v1 cells. […] The ability of D2 to block AR-PELP1 interaction could be overcome by transient over-expression of PELP1 in a dose-dependent manner.
# [2] = biological target: T1, interaction between AR and hsp90 (Homo sapiens, UniProt P10275); assay: AR-hsp90 interaction (co-immunoprecipitation); format: cell-based; details: hsp90 lacks a LXXLL motif
# T1 construct: endogenous in cells; host or cells: prostate cancer cells
# T1 sequence (P10275 1-920): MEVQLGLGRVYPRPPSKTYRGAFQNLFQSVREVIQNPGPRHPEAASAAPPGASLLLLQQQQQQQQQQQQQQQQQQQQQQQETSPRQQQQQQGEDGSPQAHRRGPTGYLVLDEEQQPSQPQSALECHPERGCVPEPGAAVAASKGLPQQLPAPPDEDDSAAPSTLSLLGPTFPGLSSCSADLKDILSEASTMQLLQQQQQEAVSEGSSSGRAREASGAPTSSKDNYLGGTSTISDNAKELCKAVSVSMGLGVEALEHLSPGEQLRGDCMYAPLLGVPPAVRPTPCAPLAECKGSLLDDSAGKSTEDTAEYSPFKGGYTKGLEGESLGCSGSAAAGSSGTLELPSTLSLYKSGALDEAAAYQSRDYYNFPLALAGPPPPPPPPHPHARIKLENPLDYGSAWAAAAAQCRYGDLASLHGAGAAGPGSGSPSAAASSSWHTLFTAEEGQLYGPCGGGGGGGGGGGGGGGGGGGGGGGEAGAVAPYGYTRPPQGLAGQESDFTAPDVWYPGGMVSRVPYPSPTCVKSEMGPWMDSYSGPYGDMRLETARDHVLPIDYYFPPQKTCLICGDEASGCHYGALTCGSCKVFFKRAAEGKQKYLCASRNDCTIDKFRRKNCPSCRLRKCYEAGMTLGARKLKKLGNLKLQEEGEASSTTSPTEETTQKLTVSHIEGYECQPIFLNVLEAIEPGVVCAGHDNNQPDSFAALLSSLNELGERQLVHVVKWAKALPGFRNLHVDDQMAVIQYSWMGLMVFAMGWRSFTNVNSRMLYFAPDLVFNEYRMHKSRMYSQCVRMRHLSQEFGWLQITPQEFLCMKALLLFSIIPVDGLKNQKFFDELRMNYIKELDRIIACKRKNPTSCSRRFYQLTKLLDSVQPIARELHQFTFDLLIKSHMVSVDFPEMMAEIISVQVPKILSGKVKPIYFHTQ
# PSA-luciferase promoter = assay: DHT-induced transcription from PSA-luciferase promoter; format: cell-based; details: LAPC4 cells
# Text: FIG. 9. […] This effect of D2 could be rescued by overexpression of AR (bottom left panel) or PELP1 (bottom right panel).
# At the protein level, D2, but not D1, was able to block DHT-induced expression of PSA protein. Again, the suppresion of DHT-induced transcription from an ARE could be overcome by overexpression of either AR or PELP1 ([…]). Overexpression of PELP1 was able to rescue the D2-mediated suppression of DHT-induced transcription nearly back to baseline.
# PCa cells = assay: EGF or LPA-induced proliferation of PCa cells (MTT assay); format: cell-based; details: peptidomimetic added 2 hours prior
# Experimental: FIG. 11. […] D2 does block DHT-induced proliferation of prostate cancer cells.
# In this experiment, cells were plated (2-10×10^3/well) in 96 well plates and subjected to androgen deprivation for 48 hours with phenol-red free RPMI and 1% charcoal stripped fetal bovine serum (CSF). Cells were then treated with either ethanol, EGF or DHT as a positive control for 48 hours. Peptidomimetics were added 2 hours prior to treatment. Cell proliferation was measured using the MTT colorimetric assay.
# erk = assay: DHT-mediated non-genomic activation of erk; format: cell-based; details: FIG. 12
# AR nuclear translocation = assay: DHT-induced nuclear translocation of AR in LNCaP cells; format: cell-based
# Experimental: FIGS. 13A-B. Effect on DHT-induced nuclear translocation of exogenous AR-GFP in LNCaP cells transiently transfected with AR. (a) Blue stain is DAPI (for nucleus) and green is AR (GFP). Baseline untreated LNCaP cells are shown in top left panel. Cells were pretreated with DMSO (left panel), 100 nM D1 (middle panel) and 100 nM D2 (right panel) and then treated with 1 nM DHT. AR nuclear translocation was visualized at 4 hours following DHT treatment. (b) Nuclear and cytoplasmic extracts were collected from similar cells and subject to western analyses.
# FIG. 13 shos that pretreatment with D2 blocked DHT-induced translocation of AR-GFP to the nucleus in LnCaP cells compared to the control D1 or DMSO.
smiles,measurement,setting,value
COC(=O)c1ccc(NC(=O)c2ccc([N+](=O)[O-])c(OCC(C)C)c2)c(OCC(C)C)c1 [D2],stability in cell lysate,"[1]; LNCaP cell lysate, 37° C., 7 days",stable in cell lysate of LNCaP over 7 days
same,stability in culture (HPLC),"[1]; in culture, FIG. 4E",single peak on the HPLC
same,stability of AR or PELP1,AR-PELP1 interaction,did not adversely affect
same,DHT- and E2-induced interaction of AR with PELP1,"AR-PELP1 interaction; LAPC4, C4-2, VCAP and CWR22v1 cells",able to block
same,DHT-induced physical interaction of AR and PELP1,"AR-PELP1 interaction; LnCaP cells, preincubation with 100 nM",blocked
same,"AR-PELP1 interaction, dose dependence","AR-PELP1 interaction; increasing concentration, FIG. 7",blocked AR-PELP1 interaction in a dose-dependent manner
same,interaction between AR and hsp90,[2],not able to affect
same,DHT-induced transcription from PSA-luciferase promoter,PSA-luciferase promoter,able to block; also recorded: block DHT-Induced gene expression
same,EGF or LPA-induced proliferation of PCa cells,PCa cells,no effect; also recorded: does not affect
same,DHT-mediated non-genomic activation of erk,erk,no effect; also recorded: does not block
same,DHT-induced translocation of AR-GFP to the nucleus (imaging),"AR nuclear translocation; 100 nM pretreatment, 1 nM DHT, 4 hours",blocked
same,AR nuclear translocation (nuclear and cytoplasmic extracts),AR nuclear translocation; upon addition of DHT,prevents AR nuclear translocation
